Common to all, as to assay type: physicochemical
Series [1] is described as follows: DSC glass transition of rapid quench 50% ACM layers. To be noted: 50% ACM loading, DSC 10° C./min. The protocol:
All analyses were carried out in triplicate.
Most thin layer drug products are initially amorphous, but tend to crystallize slowly over time. Time and material consuming storage experiments are usually required to study the stability of amorphous drug candidate. It is necessary to predict the amorphous stability of drug candidates early in the formulation process. However, the glass transition temperature of the polymer is masked by the melting peak of the drug and little extra information can be extracted. The DSC heating curve for a sample quench cooled after being melted gave information on the glass transition temperature, the crystallisation exotherm, and the melting endotherm (FIG. 21). Samples were prepared by melting in closed DSC pans from R.T. to 200° C. at a rate of 10° C./min and subsequently cooled to −10° C. at a cooling rate of 10° C./min. The pure ACM phases were well studied by DSC; the amorphous form a glass transition peak at 24.8° C., a crystallization peak between 65° C. to 100° C., a solid state transition at about 130° C. from Form III to Form II, and a melting peak for Form II at about 158° C.

Series [2] can be described thus: Crystallization time of ACM in layers with different excipients. The settings on record: 50% ACM layers.
Series [3] can be described thus: Stability test of […]/HPMC thin layer tablets stored at 40° C., 75% R.H. (HPLC). The settings on record: Pure ALISKIREN (starting drug substance). The method, then:
Tablet forming was done by Instron and a force of up to 25 kN (9 mm diameter die) was recorded. The as-made thin layer tablets are then coated by Opadry AMB for 60 min, with the final coating taking up 10% of the tablet weight. Every 30 tablets were stored in a plastic vial of about 40 ml in volume together with a small standard drying bag. Vials were sealed using aluminum foil and placed at 40° C. for 75% R.H. for 1 month or 3 months. Samples of Aliskiren/HPMC thin layer tablets were tested by HPLC after peeling off the blue coating materials to avoid cross contamination. […] Water content was measured using a […] volumetric KF titration from Mettler Toledo. […] drug purity was verified by Agilent […] series high performance liquid chromatography (HPLC). All analyses were carried out in triplicate. […] The as-obtained tablets were then coated by Opadry AMB and placed at 40° C. for 75% R.H. for 1-month or 3-months stability tests.

Series [4] can be described thus: Solvent inspection of dried layers after storage in desiccator overnight. The protocol:
(§1) Water content was measured using a […] volumetric KF titration from Mettler Toledo. […] […] drug purity was verified by Agilent […] series high performance liquid chromatography (HPLC). All analyses were carried out in triplicate. […] In order to confirm the chemical stability of the drug, HPLC was used. Different experiments were carried out to examine the level of degradation of aliskiren as the drying temperature and time increased. […] The highest allowable drying temperature was set to be 70° C. At 70° C., 60 min was the minimum drying time required to have layers that peel easily and that contain solvent content under regulatory requirements (ethanol<0.5% and water %<0.5%). The layers were stored in a vacuum desiccator overnight to remove excess solvent, and then sealed under vacuum for storage and further characterization.

Series [5] can be described thus: HPLC purity of aliskiren in Aliskiren/HPMC layers under different drying conditions. The method, then: as §1

Bounds are passed on as bounds.

In series [1], `CC(=O)Nc1ccc(O)cc1` [ACM only, Acetaminophen] returned a Tg of 24.8 °C. Moreover, in series [2], the Crystallization time was below 6 h.
Consider `COCCCOc1cc(C[C@@H](C[C@H](N)[C@@H](O)C[C@H](C(=O)NCC(C)(C)C(N)=O)C(C)C)C(C)C)ccc1OC` [Aliskiren], for which the “Purity of ALISKIREN” value in series [3] amounted to 99.6%. The “Solvent inspection (<0.5%) after stored in dessicator overnight” value is on record as “Yes” in series [4] (drying 30° C., 180 min); “Yes” in series [4] (drying 50° C., 90 min); “Yes” in series [4] (drying 50° C., 180 min); “Yes” in series [4] (drying 70° C., 60 min); “Yes” in series [4] (drying 70° C., 90 min). Moreover, the ALISKIREN purity % in series [5] (drying 30° C., 180 min) is given as 99.6%; in series [5] (drying 50° C., 90 min), 99.5%; in series [5] (drying 50° C., 180 min) it was 99.5%; in series [5] (drying 70° C., 30 min) it was 99.5%; in series [5] (drying 70° C., 60 min), 99.3%; in series [5] (drying 70° C., 90 min), 99.2%. This molecule had an ALISKIREN purity % in series [5] (drying 90° C., 30 min) of 98.8%. In addition, the “One single impurity >0.2%” value in series [5] (drying 30° C., 180 min) is recorded as “No”; in series [5] (drying 50° C., 90 min), “No”; in series [5] (drying 50° C., 180 min) it was “No”; in series [5] (drying 70° C., 30 min) it was “No”; in series [5] (drying 70° C., 60 min) it was “No”; in series [5] (drying 70° C., 90 min) it was “No”. Also, the “One single impurity >0.2%” value in series [5] (drying 90° C., 30 min) is given as “Yes”.

Source of the values: patent US9205089B2, “Layer processing for pharmaceuticals” (Massachusetts Institute of Technology, priority 2011, dated 2015).
